From ChEMBL document CHEMBL1201862, “PubChem BioAssay data set” (2004)
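Assay format: 96-well plates, 48-hour exposure. GI50 is the concentration that inhibits growth by half.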 The source made the active and inactive calls. Cut-off read from the data, not from the text of the source: active = GI50 up to about 1.1 µM and inactive = higher.

Tests used:
Assay in all cases: NCI tumour cell line growth inhibition, 48 h
A549 = test system: A549
IGROV-1 = test system: IGROV-1
Malme-3M = test system: Malme-3M
Hs-578T = test system: Hs-578T
MDA-N = test system: MDA-N
NCI-H226 = test system: NCI-H226
MCF7 = test system: MCF7
K562 = test system: K562
U-251 = test system: U-251
HCT-116 = test system: HCT-116
SN12C = test system: SN12C
A498 = test system: A498
NCI-H23 = test system: NCI-H23
OVCAR-5 = test system: OVCAR-5
CAKI-1 = test system: CAKI-1
MDA-MB-231 = test system: MDA-MB-231
SK-MEL-28 = test system: SK-MEL-28
PC-3 = test system: PC-3
HL-60 = test system: HL-60
MDA-MB-435 = test system: MDA-MB-435
T47D = test system: T47D
NCI/ADR-RES = test system: NCI/ADR-RES
HOP-62 = test system: HOP-62
ACHN = test system: ACHN
HCC 2998 = test system: HCC 2998
CCRF-CEM = test system: CCRF-CEM
OVCAR-4 = test system: OVCAR-4
SK-OV-3 = test system: SK-OV-3
RPMI-8226 = test system: RPMI-8226
EKVX = test system: EKVX
M14 = test system: M14
HT-29 = test system: HT-29
OVCAR-8 = test system: OVCAR-8
HCT-15 = test system: HCT-15
NCI-H522 = test system: NCI-H522
SNB-19 = test system: SNB-19
TK-10 = test system: TK-10
LOX IMVI = test system: LOX IMVI
MOLT-4 = test system: MOLT-4
BT-549 = test system: BT-549
OVCAR-3 = test system: OVCAR-3
UACC-62 = test system: UACC-62
UO-31 = test system: UO-31
SF-295 = test system: SF-295
COLO 205 = test system: COLO 205
KM12 = test system: KM12
SK-MEL-5 = test system: SK-MEL-5
786-0 = test system: 786-0
SK-MEL-2 = test system: SK-MEL-2
UACC-257 = test system: UACC-257
RXF 393 = test system: RXF 393
SF-268 = test system: SF-268
SNB-75 = test system: SNB-75
SW-620 = test system: SW-620
DU-145 = test system: DU-145
SR = test system: SR
NCI-H460 = test system: NCI-H460
SF-539 = test system: SF-539
HOP-92 = test system: HOP-92

C=C(C)CN(CC#N)CC(=C)C
GI50 (A549): > 100 µM (inactive)
GI50 (IGROV-1): > 100 µM (inactive)
GI50 (Malme-3M): > 100 µM (inactive)
GI50 (Hs-578T): 83.2 µM (inactive)
GI50 (MDA-N): > 100 µM (inactive)
GI50 (NCI-H226): > 100 µM (inactive)
GI50 (MCF7): > 100 µM (inactive)
GI50 (K562): > 100 µM (inactive)
GI50 (U-251): > 100 µM (inactive)
GI50 (HCT-116): > 100 µM (inactive)
GI50 (SN12C): > 100 µM (inactive)
GI50 (A498): > 100 µM (inactive)
GI50 (NCI-H23): > 100 µM (inactive)
GI50 (OVCAR-5): > 100 µM (inactive)
GI50 (CAKI-1): > 100 µM (inactive)
GI50 (MDA-MB-231): > 100 µM (inactive)
GI50 (SK-MEL-28): > 100 µM (inactive)
GI50 (PC-3): > 100 µM (inactive)
GI50 (HL-60): > 100 µM (inactive)
GI50 (MDA-MB-435): > 100 µM (inactive)
GI50 (T47D): > 100 µM (inactive)
GI50 (NCI/ADR-RES): > 100 µM (inactive)
GI50 (HOP-62): > 100 µM (inactive)
GI50 (ACHN): > 100 µM (inactive)
GI50 (HCC 2998): > 100 µM (inactive)
GI50 (CCRF-CEM): > 100 µM (inactive)
GI50 (OVCAR-4): > 100 µM (inactive)
GI50 (SK-OV-3): > 100 µM (inactive)
GI50 (RPMI-8226): > 100 µM (inactive)
GI50 (EKVX): > 100 µM (inactive)
GI50 (M14): > 100 µM (inactive)
GI50 (HT-29): > 100 µM (inactive)
GI50 (OVCAR-8): > 100 µM (inactive)
GI50 (HCT-15): > 100 µM
GI50 (NCI-H522): > 100 µM (inactive)
GI50 (SNB-19): > 100 µM (inactive)
GI50 (TK-10): > 100 µM (inactive)
GI50 (LOX IMVI): > 100 µM (inactive)
GI50 (MOLT-4): > 100 µM (inactive)
GI50 (BT-549): > 100 µM (inactive)
GI50 (OVCAR-3): > 100 µM (inactive)
GI50 (UACC-62): > 100 µM (inactive)
GI50 (UO-31): > 100 µM (inactive)
GI50 (SF-295): > 100 µM (inactive)
GI50 (COLO 205): > 100 µM (inactive)
GI50 (KM12): > 100 µM (inactive)
GI50 (SK-MEL-5): > 100 µM (inactive)
GI50 (786-0): > 100 µM (inactive)
GI50 (SK-MEL-2): > 100 µM (inactive)
GI50 (UACC-257): > 100 µM (inactive)
GI50 (RXF 393): > 100 µM (inactive)
GI50 (SF-268): > 100 µM (inactive)
GI50 (SNB-75): > 100 µM (inactive)
GI50 (SW-620): > 100 µM (inactive)
GI50 (DU-145): > 100 µM (inactive)
GI50 (SR): > 100 µM (inactive)

COC(=O)C1=COc2c(n(C)c3ccccc23)-c2ccccc21
GI50 (IGROV-1): 20.2 µM (inactive)
GI50 (Malme-3M): > 100 µM (inactive)
GI50 (Hs-578T): > 100 µM (inactive)
GI50 (MDA-N): > 100 µM (inactive)
GI50 (NCI-H226): > 100 µM (inactive)
GI50 (MCF7): > 100 µM (inactive)
GI50 (K562): > 100 µM (inactive)
GI50 (U-251): > 100 µM (inactive)
GI50 (HCT-116): > 100 µM (inactive)
GI50 (SN12C): > 100 µM (inactive)
GI50 (A498): > 100 µM (inactive)
GI50 (NCI-H23): > 100 µM (inactive)
GI50 (OVCAR-5): > 100 µM (inactive)
GI50 (CAKI-1): > 100 µM (inactive)
GI50 (MDA-MB-231): > 100 µM (inactive)
GI50 (PC-3): > 100 µM (inactive)
GI50 (HL-60): > 100 µM (inactive)
GI50 (MDA-MB-435): > 100 µM (inactive)
GI50 (T47D): > 100 µM (inactive)
GI50 (NCI/ADR-RES): > 100 µM (inactive)
GI50 (HOP-62): > 100 µM (inactive)
GI50 (ACHN): 74 µM (inactive)
GI50 (CCRF-CEM): > 100 µM (inactive)
GI50 (SK-OV-3): > 100 µM (inactive)
GI50 (RPMI-8226): 97.3 µM (inactive)
GI50 (EKVX): > 100 µM (inactive)
GI50 (M14): > 100 µM (inactive)
GI50 (HT-29): > 100 µM (inactive)
GI50 (OVCAR-8): > 100 µM (inactive)
GI50 (HCT-15): > 100 µM
GI50 (SNB-19): > 100 µM (inactive)
GI50 (TK-10): > 100 µM (inactive)
GI50 (LOX IMVI): > 100 µM (inactive)
GI50 (MOLT-4): > 100 µM (inactive)
GI50 (BT-549): > 100 µM (inactive)
GI50 (OVCAR-3): > 100 µM (inactive)
GI50 (UACC-62): > 100 µM (inactive)
GI50 (UO-31): > 100 µM (inactive)
GI50 (SF-295): > 100 µM (inactive)
GI50 (COLO 205): > 100 µM (inactive)
GI50 (KM12): > 100 µM (inactive)
GI50 (SK-MEL-5): 71.1 µM (inactive)
GI50 (786-0): > 100 µM (inactive)
GI50 (SK-MEL-2): > 100 µM (inactive)
GI50 (NCI-H460): > 100 µM (inactive)
GI50 (UACC-257): > 100 µM (inactive)
GI50 (RXF 393): > 100 µM (inactive)
GI50 (SF-268): > 100 µM (inactive)
GI50 (SNB-75): 27.6 µM (inactive)
GI50 (SW-620): > 100 µM (inactive)
GI50 (DU-145): > 100 µM (inactive)
GI50 (SR): 4.21 µM (inactive)
GI50 (SF-539): 81.1 µM (inactive)

O=c1oc2ccc([N+](=O)[O-])cc2c(Nc2ccc3c(c2)Oc2ccccc2O3)c1[N+](=O)[O-]
GI50 (A549): 32.1 µM (inactive)
GI50 (IGROV-1): 28.6 µM (inactive)
GI50 (Malme-3M): 69.8 µM (inactive)
GI50 (Hs-578T): 44.3 µM (inactive)
GI50 (MDA-N): 36.2 µM (inactive)
GI50 (NCI-H226): 32.4 µM (inactive)
GI50 (MCF7): 26.5 µM (inactive)
GI50 (K562): 30 µM (inactive)
GI50 (U-251): 18.9 µM (inactive)
GI50 (HCT-116): 29 µM (inactive)
GI50 (SN12C): 32.3 µM (inactive)
GI50 (NCI-H23): 25.1 µM (inactive)
GI50 (OVCAR-5): 38 µM (inactive)
GI50 (CAKI-1): 28.8 µM (inactive)
GI50 (MDA-MB-231): 19.1 µM (inactive)
GI50 (SK-MEL-28): 39.9 µM (inactive)
GI50 (PC-3): 25 µM (inactive)
GI50 (HL-60): 21.3 µM (inactive)
GI50 (MDA-MB-435): 37.1 µM (inactive)
GI50 (T47D): 50.2 µM (inactive)
GI50 (NCI/ADR-RES): 29.9 µM (inactive)
GI50 (HOP-62): 38.9 µM (inactive)
GI50 (ACHN): 32.2 µM (inactive)
GI50 (HCC 2998): 27.7 µM (inactive)
GI50 (CCRF-CEM): 30.1 µM (inactive)
GI50 (OVCAR-4): 42 µM (inactive)
GI50 (SK-OV-3): 41.4 µM (inactive)
GI50 (RPMI-8226): 23.3 µM (inactive)
GI50 (EKVX): 31.6 µM (inactive)
GI50 (M14): 30.1 µM (inactive)
GI50 (HT-29): 35.2 µM (inactive)
GI50 (OVCAR-8): 26.8 µM (inactive)
GI50 (HCT-15): 31.1 µM
GI50 (NCI-H522): 35.5 µM (inactive)
GI50 (SNB-19): 28.6 µM (inactive)
GI50 (TK-10): 37.3 µM (inactive)
GI50 (LOX IMVI): 31.7 µM (inactive)
GI50 (BT-549): 30.4 µM (inactive)
GI50 (OVCAR-3): 47.3 µM (inactive)
GI50 (UACC-62): 25.6 µM (inactive)
GI50 (UO-31): 69.2 µM (inactive)
GI50 (SF-295): 43.6 µM (inactive)
GI50 (COLO 205): 21.7 µM (inactive)
GI50 (KM12): 31.9 µM (inactive)
GI50 (SK-MEL-5): 29.1 µM (inactive)
GI50 (786-0): 23.4 µM (inactive)
GI50 (SK-MEL-2): 21.3 µM (inactive)
GI50 (NCI-H460): 30 µM (inactive)
GI50 (UACC-257): 26.2 µM (inactive)
GI50 (HOP-92): 19.2 µM (inactive)
GI50 (RXF 393): 56 µM (inactive)
GI50 (SF-268): 48.1 µM (inactive)
GI50 (SNB-75): 40.9 µM (inactive)
GI50 (DU-145): 59.7 µM (inactive)
GI50 (SR): 31 µM (inactive)
GI50 (SF-539): 25.4 µM (inactive)
